Laboratory results as given in article PMC6345779, “Hypoculoside, a sphingoid base-like compound from Acremonium disrupts the membrane integrity of yeast cells” (Scientific Reports, 2019).

Assays:
[1] = tested on: vacuoles of wild type yeast cells; test: FM 4-64 fluorescence microscopy of vacuolar structure; type: cell-based, Saccharomyces cerevisiae; settings: 11.6 µM, FM 4-64 pre-labelled wild type cells, N = 100 cells
Description: As several vacuolar transport mutants were sensitive to hypoculoside (Fig. 3), we examined the effect of hypoculoside on the vacuolar structure of yeast cells. We incubated wild type yeast cells with FM 4–64, a dye that stains the vacuolar membranes, for 1 hour. We then washed off the excess FM 4–64 from the medium and transferred the cells into fresh medium with either hypoculoside or hypoculine or DMSO. […] In contrast, about 50% of 11.6 µM hypoculoside-treated cells had defective vacuoles (Fig. 7B). However, only 3% of 11.6 µM hypoculine-treated cells had defective vacuoles. Thus, the effect of hypoculoside and hypoculine on vacuolar structure correlates with their inhibitory activities.
Figure 7 Hypoculoside but not hypoculine disrupts the vacuolar structure of yeast cells. Wild type yeast cells containing vacuoles pre-labelled with the lipophilic dye FM 4-64 were exposed to either DMSO or hypoculoside or hypoculine at the indicated concentrations for 1 hour. Effects of the compounds on vacuolar morphology was analyzed by fluorescence microscopy. […] (B) Quantification of the various categories for cells treated with either DMSO or hypoculoside or hypoculine is plotted (N = 100 cells). […]
Labeling of yeast cells with FM4-64 (Invitrogen) was done as previously reported. […] The images were acquired using an inverted fluorescence microscope ZEISS LSM 5 LIVE (Carl Zeiss, Oberkochen, Germany).

[2] = tested on: Wild type strain (BY4743); test: Rescue of myriocin-induced growth inhibition in yeast; type: cell-based, Saccharomyces cerevisiae
Description: Myriocin is an inhibitor of Serine palmitoyltransferase (SPT), which catalyzes the first step in the synthesis of sphingolipid biosynthesis. Addition of PHS or DHS can rescue inhibition caused by myriocin[28]. We tested whether hypoculoside can rescue the toxicity of myriocin–treated cells.
Wild type strain (BY4743) was grown in YPD medium containing different concentrations of myriocin and either phytosphingosine (PHS) or dihydrosphingosine (DHS) or hypoculoside (HYP) at the indicated concentrations. Normalized growth at the different concentrations after 24 hours of incubation at 30 °C is plotted for the various cultures.

CC(N)C(O)CCCCCCCCCCCCCCCCCCC(O)C(C)OC1OC(CO)C(O)C(O)C1O (stereo not drawn) [hypoculoside, Hypoculoside]
cells with defective vacuoles [1]: about 50% | rescue of myriocin-induced inhibition ([2]; hypoculoside at the concentrations of Fig. 6): did not rescue | combined effect with myriocin on growth ([2]; total effect = sum of individual effects): additive effect
